US20120295838A1, “Selective poly-substituted glycine antibiotics and related compositions” (priority 2008, published 2012)
Square brackets hold non-standard residues; d marks the D form. Peptide text beside a SMILES is read from it. Nspe = C[C@H](NCC(=O)O)c1ccccc1; Nlys = NCCCCNCC(=O)O

What was measured:
E. coli ATCC 35218 = type: cell-based; details: ATCC 35218
Experimental: (§1) Whereas the preceding generation of molecules was designed to elucidate structure function relationships of specific molecular parameters (chirality, length, hydrophobicity, etc.), another generation compounds were designed explicitly to explore effects on selectivity. Antimicrobial activity of these compounds was tested against bacterial strains E. coli (ATTC 35218) and B. subtilis (ATTC 6633) in cation-adjusted MHB using the microdilution protocols previously described. The sequences, antimicrobial activities, hemolytic activities, and metabolic inhibitory concentrations against NIH 3T3 mouse fibroblast cells are summarized in Table 3 and the rationale of their design is described below.
(§2) Screening antibacterial assays. MICs were determined in 96-well microtiter plates in accordance with CLSI M7-A6 protocols. Peptoid solutions with 50 μL total volume were prepared using 2:1 serial dilutions. 50 i—tL of bacteria inoculum (1×10^6 CFU/mL) prepared in cation-adjusted Mueller-Hinton broth (CAMHB) was added to test wells. Control wells contained 100 μL MHB (no growth) or 50 μL inoculums with 50 μL MHB with no peptoid. […] Reported values were reproducible over three experiments, each containing two parallel trials.
(§3) Antibacterial Assays for Compositions. MICs were determined according to CLSI M7-A6 protocols in a 96-well microtiter plate. In test wells, 50 μL bacterial inoculum (1×10^6 CFU/ml) in cation-adjusted Mueller-Hinton broth (CAMHB) was added to 50 μL peptoid solution in CAMHB (prepared by 1:2 serial dilutions). Positive controls contained 50 μL inoculum and 50 μL CAMHB without peptoid. […] MIC values reported were reproducible between three independent experimental replicates, each consisting of two parallel trials.

human erythrocytes = experiment: Hemolysis assay; type: cell-based
Experimental: (§4) Hemolysis assays. Erythrocytes were isolated from freshly drawn, heparanized human blood and resuspended to 20 vol % in PBS (pH 7.4). In a 96-well microtiter plate, 100 μL erythrocyte suspension was added to 100 uL peptoid solution in PBS (prepared by 1:2 serial dilutions), or 100 μL PBS in the case of negative controls. 100% hemolysis wells contained 100 μL, blood cell suspension with 100 μL 0.2 vol % Triton X-100. The plate was incubated for 1 h at 37° C., then each well was diluted with 1504 PBS. The plate was then centrifuged at 1200 g for 15 min, 100 μL of the supernatant from each well transferred to a fresh microtiter plate, and A350 measured.
Hemolysis assays. Erythrocytes were isolated from freshly drawn, heparanized human blood and resuspended in PBS (pH 7.4) to make a 20% volume suspension. Peptoid solutions were prepared by serial dilution (2:1) in a 96-well microtiter plate. For test wells, 100 μLL of erythrocyte suspension was added to 100 μL of peptoid solution in PBS; PBS without peptoid was used as the negative control and 0.2 vol % Triton X-100 as the positive control that indicates 100% hemolysis. After 1 hour incubation at 37° C., each well was diluted with 150 μL PBS. Plates were then centrifuged at 1,200×g for 15 minutes to pellet the cells. 30 μL of the supernatant from each well were transferred to the corresponding well of a second 96-well plate that contains 70 μL PBS.
as §4, with “assays for Compositions.” for “assays.”, “100” for “100 uL”, “μL” for “μL,”, “150 μL” for “1504”, “1200g” for “1200 g”

MTS assay, NIH 3T3 cells = type: cell-based, mouse; details: mouse, NIH 3T3 fibroblast cells
Experimental: The potencies of all compounds were determined against representative Gram-negative (E. coli ATCC 35218) and Gram-positive (B. subtilis ATCC 6633) biosafety level 1 (BSL1) organisms. In addition to hemolytic activity, the conventional measure of toxicity to mammalian cells, the effect of each ampetoid on NIH 3T3 mouse fibroblast cells was determined using the MTS tetrazolium salt-based colorimetric assay. While hemolysis measures the degree to which erythrocytes are lysed, the MTS assay indirectly quantifies the extent to which cellular metabolic activity is inhibited.
MTS assays. NIH/3T3 cells (ATCC Corporation) cultured at 37° C. and 5% CO2 in complete Dulbecco's modified eagle's media (CDMEM) supplemented with 1% sodium pyruvate, 1% penicillin-streptomycin, 1.5 g/L NaHCO3, and 10% fetal bovine serum. Cells were seeded at a density of 5,000 cells per well for NIH/3T3 cells in 96-well plates (100 μl total volume). A peptoid solution plate (100 μL total volume per well) was prepared by serial dilution of aqueous peptoid stock solution in Hank's balanced salt solution (HBSS) media. The day-old cell monolayers were washed with HBSS and media was replaced with 100 μL HBSS. The contents of the peptoid solution plate were transferred onto corresponding wells of the cell monolayer plate, and 40 μL MTS reagent (Promega, Inc.) was added to each well. After incubating for 3 hours at 37° C., absorbance at 490 nm was determined. […] The average of six replicates is reported.

B. subtilis ATCC 6633 = type: cell-based; details: ATCC 6633
Experimental: as §1, §2, §3

## C[C@H](NCC(=O)N(CCCCN)CC(=O)N(CC(=O)N(CC(=O)N(CCCCN)CC(=O)N(CC(=O)N(CC(=O)N(CCCCN)CC(=O)N(CC(=O)N(CC(=O)N(CCCCN)CC(=O)N(CC(N)=O)[C@@H](C)c1ccccc1)[C@@H](C)c1ccccc1)[C@@H](C)c1ccccc1)[C@@H](C)c1ccccc1)[C@@H](C)c1ccccc1)[C@@H](C)c1ccccc1)[C@@H](C)c1ccccc1)c1ccccc1 [1B, H-(Nspe-Nlys-Nspe)4-NH2] (H-[Nspe][Nlys][Nspe][Nspe][Nlys][Nspe][Nspe][Nlys][Nspe][Nspe][Nlys][Nspe]-NH2)
E. coli ATCC 35218
  E. coli MIC: 6.3 µM
Human erythrocytes
  HD10: 55 µM
MTS assay, NIH 3T3 cells
  CC50 at 3 h: 4.9 µM

## C[C@@H](c1ccccc1)N(CC(N)=O)C(=O)CN(C(=O)CN(CCCCN)C(=O)[C@@H]1CCCN1C(=O)CN(C(=O)CN(CCCCN)C(=O)CN(C(=O)CN(C(=O)CN(CCCCN)C(=O)[C@@H]1CCCN1C(=O)CN(C(=O)CNCCCCN)[C@@H](C)c1ccccc1)[C@@H](C)c1ccccc1)[C@@H](C)c1ccccc1)[C@@H](C)c1ccccc1)[C@@H](C)c1ccccc1 [1-Pro3,9, H-(Nlys-Nspe-L-Pro-Nlys-Nspe-Nspe)2-NH2] (H-[Nlys][Nspe]P[Nlys][Nspe][Nspe][Nlys][Nspe]P[Nlys][Nspe][Nspe]-NH2)
E. coli ATCC 35218
  E. coli MIC: 50 µM
MTS assay, NIH 3T3 cells
  CC50 at 3 h: 71 µM

## C[C@H](NCC(=O)N(CCCCN)CC(=O)N(CC(=O)N(CCCCN)CC(=O)N(CCCCN)CC(=O)N(CCCCN)CC(=O)N(CC(=O)N(CCCCN)CC(=O)N(CC(=O)N(CCCCN)CC(=O)N(CCCCN)CC(=O)N(CC(=O)N(CC(=O)N(CCCCN)CC(=O)N(CC(N)=O)[C@@H](C)c1ccccc1)[C@@H](C)c1ccccc1)[C@@H](C)c1ccccc1)[C@@H](C)c1ccccc1)[C@@H](C)c1ccccc1)[C@@H](C)c1ccccc1)c1ccccc1 [1B15 mer-Nlys4,6,10, H-Nspe-Nlys-Nspe-Nlys-Nlys-Nlys-Nspe-Nlys-Nspe-Nlys-Nlys-Nspe-Nspe-Nlys-Nspe-NH2] (H-[Nspe][Nlys][Nspe][Nlys][Nlys][Nlys][Nspe][Nlys][Nspe][Nlys][Nlys][Nspe][Nspe][Nlys][Nspe]-NH2)
E. coli ATCC 35218
  E. coli MIC: >100 µM
MTS assay, NIH 3T3 cells
  CC50 at 3 h: 40 µM

## C[C@H](NCC(=O)N(CC(=O)N(CCCCN)CC(=O)N(CC(=O)N(CCCCN)CC(=O)N(CC(=O)N(CCCCN)CC(=O)N(CC(=O)N(CC(=O)N(CC(=O)N(CC(=O)N(CCCCN)CC(N)=O)[C@@H](C)c1ccccc1)[C@@H](C)c1ccccc1)[C@@H](C)c1ccccc1)[C@@H](C)c1ccccc1)[C@@H](C)c1ccccc1)[C@@H](C)c1ccccc1)[C@@H](C)c1ccccc1)c1ccccc1 [1scr, H-(Nspe)2-(Nlys-Nspe)3-(Nspe)3-Nlys-NH2] (H-[Nspe][Nspe][Nlys][Nspe][Nlys][Nspe][Nlys][Nspe][Nspe][Nspe][Nspe][Nlys]-NH2)
E. coli ATCC 35218
  E. coli MIC: 6.3 µM
Human erythrocytes
  HD10: 64 µM
MTS assay, NIH 3T3 cells
  CC50 at 3 h: 8.5 µM

## C[C@H](NCC(=O)N(CC(=O)N(CCCCN)CC(=O)N(CC(=O)N(CC(=O)N(CCCCN)CC(=O)N(CC(=O)N(CC(=O)N(CCCCN)CC(=O)N(CC(=O)N(CC(=O)N(CCCCN)CC(N)=O)[C@@H](C)c1ccccc1)[C@@H](C)c1ccccc1)[C@@H](C)c1ccccc1)[C@@H](C)c1ccccc1)[C@@H](C)c1ccccc1)[C@@H](C)c1ccccc1)[C@@H](C)c1ccccc1)c1ccccc1 [1C, H-(Nspe-Nspe-Nlys)4-NH2] (H-[Nspe][Nspe][Nlys][Nspe][Nspe][Nlys][Nspe][Nspe][Nlys][Nspe][Nspe][Nlys]-NH2)
E. coli ATCC 35218
  E. coli MIC: 6.3 µM
Human erythrocytes
  HD10: 25 µM
MTS assay, NIH 3T3 cells
  CC50 at 3 h: 5.6 µM

## C[C@@H](c1ccc2ccccc2c1)N(CC(N)=O)C(=O)CN(C(=O)CN(CCCCN)C(=O)CN(C(=O)CN(C(=O)CN(CCCCN)C(=O)CN(C(=O)CN(C(=O)CN(CCCCN)C(=O)CN(C(=O)CN(C(=O)CNCCCCN)[C@@H](C)c1ccccc1)[C@@H](C)c1ccccc1)[C@@H](C)c1ccccc1)[C@@H](C)c1ccc2ccccc2c1)[C@@H](C)c1ccccc1)[C@@H](C)c1ccccc1)[C@@H](C)c1ccccc1 [1-Nsna6,12, H-(Nlys-Nspe-Nspe-Nlys-Nspe-Nsna)2-NH2]
E. coli ATCC 35218
  MIC for E. coli ATCC 35218: 25 to 50 µM
B. subtilis ATCC 6633
  MIC for B. subtilis ATCC 6633: 0.78 to 1.6 µM
Human erythrocytes
  HD10: 7 µM
  HD50: 27 µM
Human erythrocytes; red cells of human, 1 h
  HD10 (10% hemolytic dose): 4 µM
  HD50 (50% hemolytic dose): 22 µM

## C[C@@H](c1ccccc1)N(CC(=O)N(CCCCN)CC(=O)N(CC(=O)N(CC(=O)N(CCCCN)CC(=O)N(CC(=O)N(CC(=O)N(CCCCN)CC(=O)N(CC(=O)N(CC(=O)N(CCCCN)CC(N)=O)[C@@H](C)c1ccccc1)[C@@H](C)c1ccccc1)[C@@H](C)c1ccccc1)[C@@H](C)c1ccccc1)[C@@H](C)c1ccccc1)[C@@H](C)c1ccccc1)C(=O)CN(C(=O)CNCCCCN)[C@@H](C)c1ccccc1 [113 mer, H-(Nlys-Nspe-Nspe)4-Nlys-NH2] (H-[Nlys][Nspe][Nspe][Nlys][Nspe][Nspe][Nlys][Nspe][Nspe][Nlys][Nspe][Nspe][Nlys]-NH2)
E. coli ATCC 35218
  E. coli MIC: 3.1 µM
MTS assay, NIH 3T3 cells
  CC50 at 3 h: 5.6 µM

## C[C@@H](c1ccccc1)N(CC(N)=O)C(=O)CN(CCCCN)C(=O)CN(C(=O)CN(C(=O)CN(CCCCN)C(=O)CN(C(=O)CN(C(=O)CN(CCCCN)C(=O)CN(C(=O)CN(C(=O)CNCCCCN)[C@@H](C)c1ccccc1)[C@@H](C)c1ccccc1)[C@@H](C)c1ccccc1)[C@@H](C)c1ccccc1)[C@@H](C)c1ccccc1)[C@@H](C)c1ccccc1 [111 mer, H-(Nlys-Nspe-Nspe)3-Nlys-Nspe-NH2] (H-[Nlys][Nspe][Nspe][Nlys][Nspe][Nspe][Nlys][Nspe][Nspe][Nlys][Nspe]-NH2)
E. coli ATCC 35218
  E. coli MIC: 6.3 µM
MTS assay, NIH 3T3 cells
  CC50 at 3 h: 11 µM

## C[C@@H](c1ccccc1)N(CC(=O)N(CCCCN)CC(=O)N(CC(=O)N(CC(=O)N(CCCCN)CC(=O)N(CC(=O)N(CC(=O)N(CCCCN)CC(N)=O)[C@@H](C)c1ccccc1)[C@@H](C)c1ccccc1)[C@@H](C)c1ccccc1)[C@@H](C)c1ccccc1)C(=O)CN(C(=O)CNCCCCN)[C@@H](C)c1ccccc1 [110 mer, H-(Nlys-Nspe-Nspe)3-Nlys-NH2] (H-[Nlys][Nspe][Nspe][Nlys][Nspe][Nspe][Nlys][Nspe][Nspe][Nlys]-NH2)
E. coli ATCC 35218
  E. coli MIC: 12.5 µM
Human erythrocytes
  HD10: > 200 µM
MTS assay, NIH 3T3 cells
  CC50 at 3 h: 54 µM
